In US20130029970A1 (priority 2009, published 2013):

Key:
[1] = biological target: T1, human CB2 (hCB2) (Homo sapiens, UniProt P34972); test: 35S GTPγS binding assay, hCB2 agonist; format: biochemical
T1 construct: (cDNA clone) CNR0200000
Procedure, shortened: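 Agonist-stimulated [35S]GTPγS (0.1 nM) binding measured by scintillation proximity after 90 min at room temperature. Reaction buffer: 50 mM HEPES pH 7.4, 100 mM NaCl, 5 mM MgCl2, 0.001% saponin plus 20 uM GDP. Membranes (5 μg) came from transfected cells expressing hCB2 cDNA (pcDNA3.1+ vector).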

[2] = biological target: T2, human CB2 receptors (Homo sapiens, UniProt P34972); test: cAMP assay in HEK-293 cells, hCB2 agonist; format: cell-based
T2 construct: (cDNA clone) CNR0200000
Procedure, shortened: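 Stable hCB2 HEK-293 cells in HBSS/10 mM HEPES/0.1% fatty-acid-free BSA incubated 30 min at 37° C with compound; forskolin 90 uM in 3× compound mix.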

[3] = biological target: T3, recombinant human cannabinoid receptor CB2 (Homo sapiens, UniProt P34972); test: Cannabinoid receptor radioligand binding assay, [3H]-CP 55,940 displacement, hCB2
T3 construct: (cDNA clone) CNR0200000
Procedure, shortened: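 Receptor source: membrane pellet (40,000×g) from transfected cells, stored in HEPES pH 7.4/MgCl2/EDTA/sucrose buffer.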

T1 sequence (P34972 whole entry): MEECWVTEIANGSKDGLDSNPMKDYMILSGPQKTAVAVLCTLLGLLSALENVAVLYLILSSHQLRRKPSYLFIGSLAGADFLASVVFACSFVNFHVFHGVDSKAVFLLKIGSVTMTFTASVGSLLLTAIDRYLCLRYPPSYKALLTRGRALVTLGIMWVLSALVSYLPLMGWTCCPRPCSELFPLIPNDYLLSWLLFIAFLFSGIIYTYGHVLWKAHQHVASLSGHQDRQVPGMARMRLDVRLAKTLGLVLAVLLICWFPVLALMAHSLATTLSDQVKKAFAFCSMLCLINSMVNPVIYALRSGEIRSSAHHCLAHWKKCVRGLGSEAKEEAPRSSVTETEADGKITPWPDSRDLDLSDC
T3 sequence (P34972 whole entry): as above
T2 sequence (P34972 whole entry): as above

Compound | EC50 [1] | EC50 [2] | IC50 [3]
C=Cn1c(C)cc2cc(C(=O)c3cccc(Cl)c3Cl)sc21 [Comp 29] | 100 to 1000 nM | 100 to 1000 nM | 1000 to 10000 nM
Cc1cc2cc(C(=O)c3cccc(Cl)c3Cl)sc2n1CCN1CCOCC1 [Compound 1, (2,3-dichlorophenyl)(5-methyl-6-(2-morpholinoethyl)-6H-thieno[2,3-b]pyrrol-2-yl)methanone] | < 100 nM | < 100 nM | < 100 nM
CCCn1c(C)cc2cc(C(=O)c3cccc(Cl)c3Cl)sc21 [Compound 3, (2,3-Dichlorophenyl)(5-methyl-6-propyl-6H-thieno[2,3-b]pyrrol-2-yl)methanone] | < 100 nM | < 100 nM | 100 to 1000 nM
Cc1cc2cc(C(=O)c3ccccc3Cl)sc2n1CCN1CCOCC1 [Compound 5, (2-Chlorophenyl)(5-methyl-6-(2-morpholinoethyl)-61-1-thieno[2,3-b]pyrrol-2-yl)methanone] | < 100 nM | < 100 nM | < 100 nM
Cc1cc2cc(C(=O)c3ccc(Cl)cc3)sc2n1CCN1CCOCC1 [Compound 6, (4-Chlorophenyl)(5-methyl-6-(2-morpholinoethyl)-6H-thieno[2,3-b]pyrrol-2-yl)methanone] | < 100 nM | < 100 nM | 100 to 1000 nM
Cc1cc2cc(C(=O)c3cccc(F)c3F)sc2n1CCN1CCOCC1 [Compound 8, (2,3-Difluorophenyl)(5-methyl-6-(2-morpholinoethyl)-6H-thieno[2,3-b]pyrrol-2-yl)methanone] | 100 to 1000 nM | < 100 nM | 100 to 1000 nM
Cc1cc2cc(C(=O)c3ccc(Cl)c(Cl)c3)sc2n1CCN1CCOCC1 [Compound 9, (3,4-Dichlorophenyl)(5-methyl-6-(2-morpholinoethyl)-6H-thieno[2,3-b]pyrrol-2-yl)methanone] | 1000 to 10000 nM | 100 to 1000 nM | 100 to 1000 nM
Cc1cc2cc(C(=O)c3cccc4c3OCC4)sc2n1CCN1CCOCC1 [Compound 11, (2,3-Dihydrobenzofuran-7-yl)(5-methyl-6-(2-morpholinoethyl)-6H-thieno[2,3-b]pyrrol-2-yl)methanone] | < 100 nM | < 100 nM | 100 to 1000 nM
COc1ccccc1C(=O)c1cc2cc(C)n(CCN3CCOCC3)c2s1 [Compound 13, (2-Methoxyphenyl)(5-methyl-6-(2-morpholinoethyl)-6H-thieno[2,3-b]pyrrol-2-yl)methanone] | < 100 nM | < 100 nM | < 100 nM
Cc1cc2cc(C(=O)c3ccccc3OC(F)(F)F)sc2n1CCN1CCOCC1 [Compound 15, (5-Methyl-6-(2-morpholinoethyl)-6H-thieno[2,3-b]pyrrol-2-yl)(2-(trifluoromethoxy)phenyl)methanone] | < 100 nM | < 100 nM | < 100 nM
Cc1cc2cc(C(=O)c3cccnc3Cl)sc2n1CCN1CCOCC1 [Compound 17, (2-Chloropyridin-3-yl)(5-methyl-6-(2-morpholinoethyl)-6H-thieno[2,3-b]pyrrol-2-yl)methanone] | 100 to 1000 nM | < 100 nM | 100 to 1000 nM
Cc1cc2cc(C(=O)c3cccc(Cl)c3Cl)sc2n1CCC1CCOCC1 [Compound 18, (2,3-Dichlorophenyl)(5-methyl-6-(2-(tetrahydro-2H-pyran-4-yl)ethyl)-6H-thieno[2,3-b]pyrrol-2-yl)methanone] | < 100 nM | < 100 nM | < 100 nM
COCCn1c(C)cc2cc(C(=O)c3cccc(Cl)c3Cl)sc21 [Compound 21, (2,3-Dichlorophenyl)(6-(2-methoxyethyl)-5-methyl-6H-thieno[2,3-b]pyrrol-2-yl)methanone] | < 100 nM | < 100 nM | 100 to 1000 nM
Cc1cc2cc(C(=O)c3cccc(Cl)c3Cl)sc2n1CCN1CCCCC1 [Compound 23, (2,3-Dichlorophenyl)(5-methyl-6-(2-(piperidin-1-yl)ethyl)-6H-thieno[2,3-b]pyrrol-2-yl)methanone] | < 100 nM | < 100 nM | < 100 nM
Cc1cc2cc(C(=O)c3cccc(Cl)c3Cl)sc2n1CC1CCCCN1C (stereo not drawn) [Compound 24, (2,3-Dichlorophenyl)(5-methyl-6((1-methylpiperidin-2-yl)methyl)-6H-thieno[2,3-b]pyrrol-2-yl)methanone] | < 100 nM | < 100 nM | < 100 nM
Cc1c(Cl)c2cc(C(=O)c3cccc(Cl)c3Cl)sc2n1CCN1CCOCC1 [Compound 27, (4-chloro-5-methyl-6-(2-morpholinoethyl)-6H-thieno[2,3-b]pyrrol-2-yl)(2,3-dichlorophenyl)methanone] | < 100 nM | < 100 nM | < 100 nM

Compound | EC50 [1] | EC50 [2] | IC50 [3]
Cc1cc2cc(C(=O)c3cccc(Cl)c3Cl)sc2n1CCN1CCCC1 [Compound 28, (2,3-Dichlorophenyl)(5-methyl-6-(2-(pyrrolidin-1-yl)ethyl)-6H-thieno[2,3-b]pyrrol-2-yl)methanone] | < 100 nM | < 100 nM | < 100 nM
Cc1cc2cc(C(=O)c3cc(Cl)ccc3Cl)sc2n1CCN1CCOCC1 [Compound 35, (2,5-Dichlorophenyl)(5-methyl-6-(2-morpholinoethyl)-6H-thieno[2,3-b]pyrrol-2-yl)methanone] | < 100 nM | < 100 nM | < 100 nM
COc1ccc(C(=O)c2cc3cc(C)n(CCN4CCOCC4)c3s2)cc1 [Compound 36, (4-methoxyphenyl)(5-methyl-6-(2-morpholinoethyl)-6H-thieno[2,3-b]pyrrol-2-yl)methanone] | < 100 nM | < 100 nM | < 100 nM
Cc1cc2cc(C(=O)c3cccc(Cl)c3Cl)sc2n1S(=O)(=O)N(C)C [Compound 41, 2-(2,3-Dichlorobenzoyl)-N,N,5-trimethyl-6H-thieno[2,3-b]pyrrole-6-sulfonamide] | < 100 nM | < 100 nM | < 100 nM
Cc1cc2cc(C(=O)c3ccccc3N)sc2n1CCN1CCOCC1 [Compound 48, (2-Aminophenyl)(5-methyl-6-(2-morpholinoethyl)-6H-thieno[2,3-b]pyrrol-2-yl)methanone] | < 100 nM | < 100 nM | < 100 nM
COCCn1c(C)cc2cc(C(=O)c3ccc(OC)cc3)sc21 [Compound 49, (6-(2-Methoxyethyl)-5-methyl-6H-thieno[2,3-b]pyrrol-2-yl)(4-methoxyphenyl)methanone] | 100 to 1000 nM | 100 to 1000 nM | 1000 to 10000 nM
COc1ccc(C(=O)c2cc3cc(C)n(CCN4CCOC4=O)c3s2)cc1 [Compound 50, 3-(2-(2-(4-Methoxybenzoyl)-5-methyl-6H-thieno[2,3-b]pyrrol-6-yl)ethyl)oxazolidin-2-one] | 1000 to 10000 nM | < 100 nM | 1000 to 10000 nM
CCOc1ccc(C(=O)c2cc3cc(C)n(CCN4CCOCC4)c3s2)cc1 [Compound 55, (4-Ethoxyphenyl)(5-methyl-6-(2-morpholinoethyl)-6H-thieno[2,3-b]pyrrol-2-yl)methanone] | < 100 nM | < 100 nM | 100 to 1000 nM
Cc1cc2cc(C(=O)c3ccc(N(C)C)cc3)sc2n1CCN1CCOCC1 [Compound 59, (4-(Dimethylamino)phenyl)(5-methyl-6-(2-morpholinoethyl)-6H-thieno[2,3-b]pyrrol-2-yl)methanone] | 100 to 1000 nM | 100 to 1000 nM | 1000 to 10000 nM
Cc1cc2cc(C(=O)c3ccc(F)cc3Cl)sc2n1CCN1CCOCC1 [Compound 64, (2-Chloro-4-fluorophenyl)(5-methyl-6-(2-morpholinoethyl)-6H-thieno[2,3-b]pyrrol-2-yl)methanone] | < 100 nM | < 100 nM | < 100 nM
Cc1cc2cc(C(=O)c3ccc(OC(F)(F)F)cc3)sc2n1CCN1CCOCC1 [Compound 65, (5-Methyl-6-(2-morpholinoethyl)-6H-thieno[2,3-b]pyrrol-2-yl)(4-(trifluoromethoxy)phenyl)methanone] | 100 to 1000 nM | 100 to 1000 nM | 100 to 1000 nM
COc1ccc(C(=O)c2cc3cc(C)n(CCN4CCOCC4)c3s2)c(F)c1 [Compound 68, (2-Fluoro-4-methoxyphenyl)(5-methyl-6-(2-morpholinoethyl)-6H-thieno[2,3-b]pyrrol-2-yl)methanone] | < 100 nM | < 100 nM | < 100 nM
COc1ccc(C(=O)c2cc3cc(C)n(CCNS(C)(=O)=O)c3s2)cc1 [Compound 71, N-(2-(2-(4-Methoxybenzoyl)-5-methyl-6H-thieno[2,3-b]pyrrol-6-yl)ethyl)methanesulfonamide] | 100 to 1000 nM | 100 to 1000 nM | 1000 to 10000 nM
COCCN(C)CCn1c(C)cc2cc(C(=O)c3ccc(OC)nc3)sc21 [Compound 157] | 1000 to 10000 nM | < 100 nM | –
COc1ccc(C(=O)c2cc3cc(C)n(CC(OC)OC)c3s2)cn1 [Compound 161, (6-(2,2-dimethoxyethyl)-5-methyl-6H-thieno[2,3-b]pyrrol-2-yl)(6-methoxypyridin-3-yl)methanone] | 1000 to 10000 nM | 100 to 1000 nM | –
Cc1cc2cc(C(=O)c3ccc(O)cc3F)sc2n1CCN1CCOCC1 [Compound 165, (2-fluoro-4-hydroxyphenyl)(5-methyl-6-(2-morpholinoethyl)-6H-thieno[2,3-b]pyrrol-2-yl)methanone] | 100 to 1000 nM | < 100 nM | –
